The values below come from US5559209A, “Regulator regions of G proteins” (The General Hospital Corporation, priority 1993, dated 1996).

Where no end group is shown, it is not given here. Some results are limits rather than exact numbers.

One experiment deals with T1, Gi2 (Bos taurus, UniProt A7MBH9).
T1 construct: trimeric Gi2 (i.e., Gi2 αβγ) purified from bovine brain to near homogeneity; from tissue; host or cells: bovine brain
The experiment can be described thus: GTPγS binding assay, peptide 14-induced Gi2 activation. It is filed as biochemical, bovine. The following applies: 10 μM peptide variant, 10 nM Gi2, 30 μM peptide 14. As to the method:
Materials and Methods The in vitro assays described below utilize the couplone portion of each of a number of G-coupled receptors, instead of an intact receptor molecule, as a means for activating the corresponding anticouplone or intact G-protein. Except as noted below, Gi2 used in this study was trimeric Gi2 (i.e., Gi2 αβγ) purified from bovine brain to near homogeneity (Katada et al., FEBS Lett. 213:353-358 (1987), stored in buffer A (20 mM hepes/NaOH (pH 7.4), 1 mM EDTA, and 0.7% CHAPS), and diluted≥10 fold for assays. The Gi2 used for the reconstitution experiment was trimeric Gi2 purified from bovine spleen to homogeneity and dissolved in buffer B (Morishita et al., 1989). Gi3 α (Morishita et al., Biochem. Biophys. Res. Commun. 172:249-255 (1990), was purified from bovine spleen and used in combination with 1.5-fold concentrated Gβγ (Katada et al., 1987). This preparation of Gi3 α was 10-20% contaminated by Gi1 α, but not by other G proteins. Trimeric Gs and Gβγ purified from bovine brain to near homogeneity (Katada et al., 1987) were also stored in buffer A.
GTPγS binding Assay--GTPγS binding to G proteins was assayed at 37° C. in 20 mM Hepes/NaOH buffer (pH 7.4) containing 130 μM MgCl2, 110 μM EDTA and 60 nM [^35 S]GTPγS, as described previously (Okamoto et al., 1990). GTPγS binding to polypeptides was negligible. The total amount of G protein was measured as maximal GTPγS binding at room temperature, as described (Okamoto et al., Cell 67:723-730, 1991a). [^35 S]GTPγS was purchased from DuPont-New England Nuclear. Binding of GTPγS to G proteins obeyed first-order kinetics according to the equation ln[(BT-B)/BT]=-kapp t, where B is the binding at time t and BT is the total binding observable at an infinite time. Thus, the apparent first-order rate constant for GTPγS binding (kapp), which is equal to the slope of the tangent to the GTPγS binding curve at time 0 and represents the actual GTPγS binding rate, was calculated from this equation.
In the experiment illustrated in FIG. 1A, 10 nM Gi2 was incubated with 30 μM peptide 14 (RVGLVRGEKARKGK; SEQ ID NO: 27), the couplone portion of the IGF-II receptor, in the presence of various concentrations of (.quadrature.) ACGi2 (DAVTDVIIKNNLKDC; SEQ ID NO: 3), (567 ) the control Gi2 α Glu297-Asp310 peptide (EAASYIQSKFEKLN; SEQ ID NO: 18), or (.diamond.) the control Gi2 α Lys346-Phe355 peptide (KNNLKDCGLF; SEQ ID NO: 19) for 5 min under the GTPγS binding assay conditions described above, and GTPγS binding to G proteins was measured. The effect of ACGi2 on Gi2 in the absence of peptide 14 is indicated by .box-solid.. Percent stimulation of GTPγS binding was calculated by subtracting the basal fractional binding and dividing by the stimulated fractional binding observed in the absence of ACGi2. The basal fractional binding (=0%) was 0.39 mol GTPγS binding/mol Gi /5 min (5 min^-1). The 100% increase represents the GTPγS binding of 0.85 (5 min^-1). Values in all figures represent the mean ±S.E. of three experiments.
To verify the notion that ACGi2 acts on Gi2 itself, and not on receptor sequences, two series of experiments were performed. First, the dose-response curve for peptide 14 action on Gi2 in the presence of various concentrations of ACGi2 was generated (FIG. 2A). Following incubation of 10 nM Gi2 with various concentrations of peptide 14 in the absence (.quadrature.) or presence of 10 μM (.diamond-solid.) or 30 μM (.box-solid.) ACGi2 for 5 min, GTPγS binding was assayed; fractional GTPγS binding to Gi2 is indicated in the figure.
The second series of experiments investigated the effect of ACGi2 on lower concentrations of Gi2 that had been activated by peptide 14 to the same extent (FIG. 2B). 1 nM Gi2 was incubated for 5 min with 3 μM peptide 14 in the presence of various concentrations of ACGi2, and GTPγS binding was measured. The fractional GTPγS binding at 0% and 100% in this experiment was 0.40 and 0.55 (5 min^-1), respectively. […]

Experiment [1] deals with NRK (rat renal fibroblast) cells. The experiment in a line: TGFβ-induced fibronectin secretion, immunoblot. The settings on record: 50 pM TGFβ, 12 hours. It is filed as cell-based. The text has this: Inhibition of TGFβ-induced matrix formation. The secretion of matrix proteins (in particular, fibronectin) by kidney, lung and liver cells may lead to sclerosis of those organs. Transforming growth factor-β (TGFβ), which stimulates the secretion of fibronectin, may therefore contribute to such sclerosis. Since the TGFβ receptor is a Go2 -coupled receptor, the ability of ACGo2 to inhibit the TGFβ-induced stimulation of fibronectin secretion by NRK (rat renal fibroblast) cells (Ignotz and Massague, J. Biol. Chem. 261:4337-4345, 1986) was assayed.
NRK cells were cultured in RPMI 1640 supplemented with 5% FCS in a CO2 -incubator at 37° C. The medium was replaced every two days. Cells were regularly subcultured by trypsin-EDTA before reaching confluency. In the experiments described below, the cells were grown in monolayer to confluency in 6-well culture plates (Corning, N.Y.), then incubated for 12 hours with RPMI 1640 plus 0.5% FCS, and for a further 12 hours with RPMI 1640 plus 0.5% FCS in the presence or absence of 50 pM TGFβ (R & D System, Minneapolis, Minn.), to which was added 100 μM ACGi2, ACGs, ACGo2, or ACGq. The medium from each well was collected and frozen at -20° C. until assay. Fibronectin secreted into each sample of medium was assessed by immunoblot as follows: […]

The next experiment deals with T cell receptor. The experiment can be described thus: OKT3-induced polyphosphoinositide turnover in Jurkat cells. Format: cell-based, human. The following applies: OKT3 1:100 for 5 min, no peptide. As to the method:
Inhibition of T cell receptor function with ACGq. T cell receptor stimulation by monoclonal antibody OKT^3 in Jurkat cells, a line of human T cells, induces measurable polyphosphoinositide (PI) turnover. 10^7 cells were labelled with 5 μCi/ml [^3 H]myoinositol in inositol-free RPMI1640 for 12 hours. After incubating the cells with 500 μM ACGq, samples containing 5×10^5 cells were then exposed to the monoclonal antibody OKT3 (Ortho) at 1:100 dilution for 5 min. Perchloric acid was added to a final concentration of 10% to lyse the cells and terminate the reaction. Cell lysates were collected into tubes and brought to pH>8 by the addition of KOH. Following centrifugation of the lysates, the supernatants were passed over a DOWX anion exchange column (Muromachi Chemicals, Japan) to separate inositol polyphosphates (IPs) from other inositol metabolites, and the amount of [^3 H] label in the inositol trisphosphate (IP3) fraction assessed.

The subject of experiment [2] is somatostatin receptor/K+ channel linkage in human growth hormone-secreting pituitary adenoma cells. The experiment can be described thus: Somatostatin-induced K+ currents, whole cell patch clamp. It is filed as cell-based. The following applies: 100 nM somatostatin, absence of anticouplone peptides. As to the method:
Inhibition Of somatostatin receptor function. It is known that somatostatin induces K^+ channel activation in a manner sensitive to pertussis toxin in human growth hormone-secreting tumors (Yamashita et al., Am. J. Physiol. 253:E28-E32, 1987). The effect of each of ACGi2, ACGi3, ACGs, ACGo1, and ACGo2 on somatostatin-induced K^+ currents in human pituitary cells was measured using the patch clamp technique, as described below.
Three human growth hormone-secreting pituitary adenomas were obtained at transsphenoidal surgery. The tissue was minced into small pieces (less than 1 mm in diameter) and was treated with 1000 units/ml dispase (Wako, Japan). These dissociated cells (≈10^5 cells/ml) were seeded onto 35-mm culture dishes. […]
A whole cell variation of the patch electrode voltage clamp technique was used to record membrane currents (Hamill et al., Pfluger Arch. 391:85-100, […]). […] The liquid junction potential between the extracellular solution and the internal solution was directly measured using a 3M KCl electrode as a reference. […]
The intracellular solution that filled the inside of the pipet portion of the apparatus contained one of the following anticouplone peptides at 100 μM: ACGi2, ACGi3, ACGs, ACGo1, or ACGo2. The exterior of the cell was bathed with the extracellular solution containing 100 nM somatostatin while the outward K^+ current was monitored. […]
For orientation: Patch clamp records ionic current or voltage across a cell membrane.

T1 sequence (A7MBH9 2-355 limits assumed): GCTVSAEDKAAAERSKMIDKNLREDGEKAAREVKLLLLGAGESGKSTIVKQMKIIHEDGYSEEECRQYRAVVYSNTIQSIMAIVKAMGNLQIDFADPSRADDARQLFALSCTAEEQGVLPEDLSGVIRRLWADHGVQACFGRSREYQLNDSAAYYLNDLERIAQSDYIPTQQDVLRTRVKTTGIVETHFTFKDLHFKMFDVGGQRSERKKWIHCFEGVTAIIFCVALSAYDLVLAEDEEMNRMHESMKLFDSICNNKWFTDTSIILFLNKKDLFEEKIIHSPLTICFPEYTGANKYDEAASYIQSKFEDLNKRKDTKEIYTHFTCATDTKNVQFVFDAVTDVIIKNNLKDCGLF
T1 sequence (P62871 2-340 partner limits assumed): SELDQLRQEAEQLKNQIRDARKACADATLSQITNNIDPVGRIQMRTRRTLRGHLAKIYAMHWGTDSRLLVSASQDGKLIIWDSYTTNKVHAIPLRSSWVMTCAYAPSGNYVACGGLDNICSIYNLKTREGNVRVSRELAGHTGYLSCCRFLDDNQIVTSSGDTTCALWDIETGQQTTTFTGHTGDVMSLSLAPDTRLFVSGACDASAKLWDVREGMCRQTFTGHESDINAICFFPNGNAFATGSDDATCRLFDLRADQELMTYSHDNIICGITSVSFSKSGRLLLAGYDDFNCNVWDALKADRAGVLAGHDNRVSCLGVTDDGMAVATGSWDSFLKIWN
T1 sequence (P63212 2-68 partner limits assumed): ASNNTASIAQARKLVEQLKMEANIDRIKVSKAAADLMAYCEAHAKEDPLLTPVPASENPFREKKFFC

Take “DAVTDVIIKNNLKAC [A5 variant, DAVTDVIIKNNLKAC]”: the inhibition (in general, the relative decrease from the control value, in per cent) at 10 µM on Gi2 is not below 80%.

For “AAVTDVIIKNNLKDC [A1 variant, AAVTDVIIKNNLKDC]”, the inhibition at 10 µM on Gi2 is not below 30%.

“TGFβ: Transforming growth factor-β, which stimulates the secretion of fibronectin”: the “fibronectin secreted by cells exposed to TGFβ” value in experiment [1] is given as “significant amount of fibronectin is secreted”.

Consider “DAVTDVIIKANLKDC [A3 variant, DAVTDVIIKANLKDC]”, for which the inhibition at 10 µM at Gi2 was not below 30%. Turning to “OKT3: monoclonal antibody OKT3 (Ortho) stimulating the T cell receptor”, in the experiment on T cell receptor, the “[3H] incorporation into IP relative to control cells not exposed to OKT3” value worked out at 157%.

Regarding DAVTDVIIK [p9 variant, DAVTDVIIK], the inhibition at 10 µM on Gi2 was not below 30%. Consider “DAVTDVIIKNNLKD [del C variant, DAVTDVIIKNNLKD]”, for which, at Gi2, the inhibition at 10 µM was not below 30%. `C[C@H](N)C(=O)NCC(=O)N[C@H]1CSSC[C@@H](C(=O)O)NC(=O)[C@H](CO)NC(=O)[C@H]([C@@H](C)O)NC(=O)[C@H](Cc2ccccc2)NC(=O)[C@H]([C@@H](C)O)NC(=O)[C@H](CCCCN)NC(=O)[C@H](Cc2c[nH]c3ccccc23)NC(=O)[C@H](Cc2ccccc2)NC(=O)[C@H](Cc2ccccc2)NC(=O)[C@H](CC(N)=O)NC(=O)[C@H](CCCCN)NC1=O` [somatostatin]: the “K+ current induced over baseline” value in experiment [2] was “approximately 20 pA”.

“DAVTAVIIKNNLKDC [A2 variant, DAVTAVIIKNNLKDC]”: the inhibition at 10 µM at Gi2 is not below 80%.
